Where two headings read alike, the source gives them in different places.
Legend:
R. oryzae [1] = test: Tissue fungal burden of DKA mice infected with R. oryzae; assay type: in vivo, BALB/c male mice
Description: Briefly, for in vivo infection, BALB/c male mice (>20 g) were rendered diabetic with a single i.p. injection of 210 mg/kg streptozotocin in 0.2 ml citrate buffer 10 days prior to fungal challenge. […] Mice were infected through the tail vein with the appropriate inocula of R. oryzae. To confirm the inocula, dilutions were streaked on PDA plates and colonies were counted following a 24 h incubation period at room temperature. The primary efficacy endpoint was time to death. As a secondary endpoint, brain fungal burden (the primary target organ) was determined by homogenization by rolling a pipette on organs placed in Whirl-Pak bags (Nasco, Fort Atkinson, Wis.) containing 2 ml saline. The homogenate was serially diluted in 0.85% saline and then quantitatively cultured on PDA. Values were expressed as log 10 cfu g^−1 tissue. All procedures involving mice were approved by the institutional animal use and care committee, following the National Institutes of Health guidelines for animal housing and care.
(§1) For in vivo infection, BALB/c male mice (>20 g) were rendered diabetic with a single i.p. injection of 210 mg/kg streptozotocin in 0.2 ml citrate buffer 10 days prior to fungal challenge. […] For neutropenic mouse model, mice were injected with a single i.p. dose of 200 mg/kg cyclolphosphamide (Bristol Myer Squibb) 2 days prior to infection with R. oryzae. […] Mice were infected through the tail vein with the appropriate inocula of R. oryzae. To confirm the inocula, dilutions were streaked on PDA plates containing 0.1% triton and colonies were counted following a 24 h incubation period at 37° C. The primary efficacy endpoint was time to death. As a secondary endpoint, brain fungal burden (the primary target organ) was determined by homogenization by rolling a pipette on organs placed in Whirl-Pak™ bags (Nasco®, Fort Atkinson, Wis.) containing 1 ml saline. The homogenate was serially diluted in 0.85% saline and then quantitatively cultured on PDA. Values were expressed as log10 cfu g−1 tissue. Finally, for histopathological analysis, infected organs were collected from mice and fixed in 10% zinc formalin. Fixed tissues were embedded in paraffin, and […] sections were stained with haematoxylin and eosin for light microscopy examination. All procedures involving mice were approved by the institutional animal use and care committee, following the National Institutes of Health guidelines for animal housing and care.

R. oryzae [2] = test: Survival of neutropenic mice infected with R. oryzae; assay type: in vivo
Description: as §1
Two days later, mice were infected via the tail-vein with 2.7×10^3 spores of R. oryzae 99-892.

[3] = system: Th1/Th2 and inflammatory cytokine responses; test: Splenic lymphocyte frequency and whole organ cytokines in infected DKA mice; assay type: in vivo
Description: Splenic lymphocyte frequencies were determined as we have previously described (Spellberg et al., Infect. Immun. 71:5756-5764 (2003)). In brief, splenic homogenates were passed through 70 μm filters followed by RBC lysis with 0.15 M ammonium chloride. The cells were fixed with Cytofix™ buffer (BD Pharmingen®), permeabilized with Cytoperm™ buffer (BD Pharmingen), and stained with 10 μg/ml of FITC-conjugated anti-mouse CD4 (clone RM4-5), PE-conjugated anti-mouse IFN-γ (clone XMG1.2) or isotype control (clone R-34), allophycocyanin (APC)-conjugated anti-mouse IL-4 (clone 11B11) or isotype control (clone R3-34), or APC-conjugated anti-mouse IL-10 (clone JES5-16E3) or isotype control (clone A95-1) (all from BD Pharmingen). In separate experiments, the frequency of CD4+CD25+foxp3+T-regulatory cells were determined using the Mouse Regulatory T cell Staining™ Kit (eBioscience®) per the manufacturer's recommendation. The frequency of apoptosis was determined using the Annexin FITC Apoptosis™ kit (BD Pharmingen®).
Cells were washed and three-color flow cytometry was performed on a Becton-Dickinson FACScan™ instrument calibrated with CaliBRITE™ beads (BD Pharmingen) using FACSComp™ software as per the manufacturer's recommendations. During data acquisition, CD4+lymphocytes were gated by concatenation of forward and side scatter, and FITC-anti-CD4 antibody fluorescence properties. Data for each sample were acquired until 10,000 CD4+lymphocytes were analyzed.
Spleens and kidneys were homogenized in 1 ml of PBS. The homogenates were pelleted at maximum speed on a tabletop centrifuge at 4° C. The supernatants were assayed for cytokines using the Cytometric Bead Array Murine Inflammatory Cytokine™ kit (BD Pharmingen) per the manufacturer's instructions.
Because of the alterations in inflammatory cellular influx seen in kidneys of mice treated with saturating ferric chloride vs. iron chelation, in this example we determined the impact of deferasirox therapy on Th1/Th2 and inflammatory cytokine responses in infected mice. Diabetic ketoacidotic mice were infected with 3.1×10^4 spores of R. oryzae 99-892 as above and treated with deferasirox, deferasirox plus ferric chloride, or placebo. On day four of infection, spleens and kidneys were processed for intracellular and whole organ cytokine determination.

[4] = system: rhinocerebral mucormycosis; test: Salvage therapy of a patient with rhinocerebral mucormycosis (case); assay type: in vivo, human; conditions: one patient
Description: A person with diabetic ketoacidosis presented to the emergency department of an outside hospital with polyuria, polydipsia, left retrobulbar pain, and a left cranial nerve (CN) VI palsy. […] The patient progressed to complete left opthalmoplegia in the first 24 hours. Rhinocerebral mucormycosis was suspected, and they were started on amphotericin B lipid complex (ABLC) at 5 mg/kg/day, along with empiric antibacterial agents, for treatment of sinusitis. On hospital day 2 they underwent endoscopic sphenooethmoid exploration. […] Bacterial culture grew only rare Enterobacter aerogenes.
Over the next twelve days, the patient developed blindness and worsening proptosis in the left eye. He was continued on ABLC and no further surgery was performed.
The patient was transferred to our institution for further management on hospital day 14. Immediately upon arrival, he underwent left orbital exenteration with enucleation and extensive sinus debridement and resection. Intraoperative findings included an ischemic globe with extensive surrounding necrosis of the extraocular muscles.
Antifungal therapy was continued. […] Given the location of the lesion at the superficial aspect of the pons, a dose of intracisternal amphotericin was administered, but the patient refused further doses. The patient remained clinically and neurologically unchanged. […]

[5] = iron overloaded patients, cited from earlier work
[6] = 4.2×10^4 spores R. oryzae 99-892, 10 mg/kg bid, 3 days, vs placebo or deferasirox plus saturating ferric chloride
[7] = R. oryzae 99-892, between the groups
[8] = R. oryzae 99-892, vs saturating iron or placebo

Compound: O=C(O)c1ccc(-n2nc(-c3ccccc3O)nc2-c2ccccc2O)cc1 [Deferasirox, 4-[3,5-Bis(2-hydroxyphenyl)-1H-1,2,4-triazol-1-yl]-benzoic acid]
- decrease in brain fungal burden (R. oryzae [1]; [6]): greater than 10 fold
- decrease in kidney fungal burden (R. oryzae [1]; [6]): greater than 10 fold
- brain CFUs compared to placebo (R. oryzae [1]; R. oryzae 99-880, monotherapy, organs harvested day 3): neither drug alone was able to reduce brain CFUs
- time to death compared to placebo (R. oryzae [2]; 2.7×10^3 spores R. oryzae 99-892, 10 mg/kg twice qod, five doses from 24 h post infection): significantly improved time to death
- time to death versus placebo (R. oryzae [2]; R. oryzae 99-892, dosed twice daily): did not significantly improve time to death
- Th1 and Th2 splenocyte frequencies ([3]; 3.1×10^4 spores R. oryzae 99-892, day four, vs saturating ferric chloride or placebo): significant increase
- kidney level of IFN-γ ([3]; R. oryzae 99-892): significantly higher
- frequencies of CD4+IL-10+ or CD4+CD25+foxp3+ splenocytes [3, 7]: not significantly different
- splenocyte apoptosis [3, 7]: no significant difference
- splenic level of IFN-γ [3, 8]: significantly higher
- splenic level of TNF [3, 8]: significantly higher
- repeat MRI of the brain ([4]; 1000 mg po daily seven days, LAmB continued, one week after treatment): resolution of the edema in the left cerebellar peduncle
- radiographic outcome ([4]; after 7 days of treatment): substantial radiographic improvement
- tolerability ([5]; chronic dosing over months to years, up to 30 mg/kg/d): very well tolerated
- tolerability ([5]; up to 40 mg/kg/d for up to 12 days): very well tolerated

Source: patent US20100129434A1, “COMPOSITIONS AND METHODS FOR THE TREATMENT OF MUCORMYCOSIS AND OTHER FUNGAL DISEASES” (priority 2006, published 2010)
